Patent US20180353445A1, “METHODS AND COMPOSITIONS RELATING TO PROTEASOME INHIBITOR RESISTANCE” (Whitehead Institute for Biomedical Research, priority 2017, published 2018)

Key:
20S proteasome = 20S proteasome (Homo sapiens, UniProt P28072+P28074); assay: Native gel analysis of proteasomal complexes, Suc-LLVY-AMC substrate overlay; type: biochemical; settings: control cells, 12 nM, 24 hours
Source text: FIGS. 2A-2F: Reducing expression of 19S subunits increases the levels of active 20S proteasomes and protects cancer cells from proteasome (FIG. 2A) HepG2 cells were infected with 80 shRNAs targeting 20 different subunits of the proteasome and 10 control shRNAs. Infected cells were then exposed to […] bortezomib and cell number was examined 4 days later. The plot represents the average (+/−SEM) of four different hairpins targeting the indicated proteasome subunits and their relative cell number following bortezomib treatment. 19S subunits are depicted with orange bars, the control with a blue bar and 20S subunits with green bars. […] (FIG. 2C) The relative cell number of cells harboring a control shLacZ or each of 4 individual shRNAs targeting shPSMD2 was analyzed 4 days after addition of the indicated concentrations of bortezomib. (FIG. 2D) HepG2 cells stably expressing four different shRNAs targeting the PSMD2 subunit and a control shRNA (lacZ) were analyzed by western blot for the indicated proteins 24 hours with or without bortezomib treatment. […] Proteasome complex levels were detected by immunoblot analysis and 20S proteasome activity by measuring the hydrolysis of Suc-LLVY-AMC by substrate overlay assays. * p<0.05 **p<0.01. […]

[1] = test system: MCF7, HEK293 and T47D cells; assay: Viability of cells grown in glucose (glycolytic) vs galactose (Hi-OXPHOS); type: cell-based, human
Protocol: FIGS. 40A-40D: Cancer cell metabolism alters sensitivity to elesclomol.
FIGS. 41A-41B: Cancer cell metabolism alters sensitivity to elesclomol.
FIGS. 51A-51D: Elesclomol preferentially targets cells in the Hi-OXPHOS state. […] The relative cell growth (color coded) was analyzed 72 hours post compound addition. Plotted are the mean SD of at least three replicas and the calculated EC50s (FIGS. 51B-51C). […] Reactive groups are indicated with a colored circle.
FIGS. 57A-57C: Elesclomol preferentially targets cells in the Hi-OXPHOS state. […] Analogs named compound 1-6. […] Plotted are the mean SD of at least three replicas and the calculated EC50s (FIG. 57A and FIG. 57C).

SMILES | 20S proteasome function (20S proteasome) | activity against cells in the HI-OXPHOS state [1] | toxicity when grown in the presence of Galactose [1] | sensitivity of cells utilizing mitochondria metabolism vs glycolytic cells ([1]; MCF7 and HEK293 cells)
CC(C)C[C@H](NC(=O)[C@H](Cc1ccccc1)NC(=O)c1cnccn1)B(O)O [bortezomib] | nearly complete inactivation |  |  | 
CN(NC(=O)CC(=O)NN(C)C(=S)c1ccccc1)C(=S)c1ccccc1 [elesclomol] |  | preferential activity | toxicity is enhanced | much more sensitive
